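Grown in 96-well plates, cells were treated for 48 hours with each compound at five concentrations. Insufficient inhibition: endpoint recorded as highest concentration tested. GI50 is the concentration that inhibits growth by half.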 Active and inactive are the calls of the source. No stated cut-off is given here; in the data, active = GI50 up to about 1.1 µM and inactive = higher.
Assays:
Experiment in all cases: NCI anticancer screen, dose series, 48 h
A498 = tested on: A498
A549 = tested on: A549
BT-549 = tested on: BT-549
CCRF-CEM = tested on: CCRF-CEM
COLO 205 = tested on: COLO 205
HCC 2998 = tested on: HCC 2998
HOP-92 = tested on: HOP-92
HT-29 = tested on: HT-29
KM12 = tested on: KM12
MCF7 = tested on: MCF7
OVCAR-3 = tested on: OVCAR-3
RXF 393 = tested on: RXF 393
SK-MEL-28 = tested on: SK-MEL-28
SR = tested on: SR
T47D = tested on: T47D
TK-10 = tested on: TK-10
UACC-257 = tested on: UACC-257
UACC-62 = tested on: UACC-62
NCI-H522 = tested on: NCI-H522

| SMILES | GI50 (A498) | GI50 (A549) | GI50 (BT-549) | GI50 (CCRF-CEM) | GI50 (COLO 205) | GI50 (HCC 2998) | GI50 (HOP-92) | GI50 (HT-29) | GI50 (KM12) | GI50 (MCF7) | GI50 (OVCAR-3) | GI50 (RXF 393) | GI50 (SK-MEL-28) | GI50 (SR) | GI50 (T47D) | GI50 (TK-10) | GI50 (UACC-257) | GI50 (UACC-62) | GI50 (NCI-H522) |
| --- | --- | --- | --- | --- | --- | --- | --- | --- | --- | --- | --- | --- | --- | --- | --- | --- | --- | --- | --- |
| CCCCOCCOCCOC1=C(Cl)C(=O)c2c(O)ccc(O)c2C1=O | 2.36 µM (inactive) | 1.85 µM (inactive) | 1.39 µM (inactive) | < 0.01 µM (active) | 0.259 µM (active) | 2.1 µM (inactive) | 0.199 µM (active) | 0.484 µM (active) | 1.79 µM (inactive) | 0.218 µM (active) | 0.877 µM (active) | 0.809 µM (active) | 0.357 µM (active) | < 0.01 µM (active) | 0.488 µM (active) | 1.32 µM (inactive) | 0.766 µM (active) | 0.8 µM (active) |  |
| CCOC(OCC)[C@@H]1C[C@@H]2N(O[C@H](OC3CCCC3(c3ccccc3)c3ccccc3)[C@H](OC(C)=O)[C@@]2(CC)Cc2ccc(OC)c(OC)c2)O1 (stereo not given in full) |  | > 100 µM (inactive) | > 100 µM (inactive) | > 100 µM (inactive) | > 100 µM (inactive) | > 100 µM (inactive) |  | > 100 µM (inactive) | > 100 µM (inactive) | > 100 µM (inactive) | > 100 µM (inactive) | > 100 µM (inactive) | > 100 µM (inactive) | 84.7 µM (inactive) | > 100 µM (inactive) | > 100 µM (inactive) | > 100 µM (inactive) | > 100 µM (inactive) | > 100 µM (inactive) |
| Cc1cc(C)nc(NC(=S)Nc2ccc([N+](=O)[O-])cc2)c1 | > 100 µM (inactive) |  | > 100 µM (inactive) | > 100 µM (inactive) | > 100 µM (inactive) | > 100 µM (inactive) | > 100 µM (inactive) | > 100 µM (inactive) | > 100 µM (inactive) | > 100 µM (inactive) |  | > 100 µM (inactive) | > 100 µM (inactive) | > 100 µM (inactive) | > 100 µM (inactive) | > 100 µM (inactive) | > 100 µM (inactive) | > 100 µM (inactive) |  |
| O=C1C(=Cc2cccc(Cl)c2)N=C(c2ccccc2)N1n1c(-c2ccccc2)nc2ccccc2c1=O |  | 32.9 µM (inactive) | 23.7 µM (inactive) | 22.9 µM (inactive) | 40 µM (inactive) | 30.7 µM (inactive) | 27 µM (inactive) | 37.2 µM (inactive) | 9.55 µM (inactive) | 25.9 µM (inactive) | 28 µM (inactive) | 33.5 µM (inactive) | 50.2 µM (inactive) | 37 µM (inactive) | 29.7 µM (inactive) | 95.5 µM (inactive) | 32.1 µM (inactive) | 23.9 µM (inactive) | 16.4 µM (inactive) |
| C[C@@H]1S[C@H](c2ccccc2F)N2Cc3ccccc3N=C12 |  | 39.2 µM (inactive) | 31.3 µM (inactive) | 30.6 µM (inactive) | 30.8 µM (inactive) | 20 µM (inactive) | 17.3 µM (inactive) | 19.5 µM (inactive) | 27.3 µM (inactive) | 31.6 µM (inactive) | 34.4 µM (inactive) | 27.4 µM (inactive) | 40.7 µM (inactive) | 15.9 µM (inactive) | 24.1 µM (inactive) | 36.7 µM (inactive) | 28.6 µM (inactive) | 19.1 µM (inactive) | 19.2 µM (inactive) |
| O=[N+]([O-])/C=C/c1cccc(F)c1 | 13.7 µM (inactive) | 4.16 µM (inactive) | 2.03 µM (inactive) | 2.22 µM (inactive) | 2.74 µM (inactive) | 12 µM (inactive) | 11.6 µM (inactive) | 3.18 µM (inactive) | 2.95 µM (inactive) | 1.05 µM (active) | 2.39 µM (inactive) | 2.02 µM (inactive) | 2.28 µM (inactive) |  | 4.88 µM (inactive) | 3.82 µM (inactive) | 3.79 µM (inactive) | 8.04 µM (inactive) | 12.3 µM (inactive) |
| Cc1cc2c(c(C(=O)NCC(=O)N[C@@H](C)C(=O)OCc3ccccc3)c1)Oc1c(cc(C)cc1C(=O)NCC(=O)N[C@@H](C)C(=O)OCc1ccccc1)S2 | > 100 µM (inactive) | > 100 µM (inactive) | > 100 µM (inactive) | > 100 µM (inactive) | > 100 µM (inactive) | 34.7 µM (inactive) |  | > 100 µM (inactive) | > 100 µM (inactive) | > 100 µM (inactive) | 22 µM (inactive) | 20.1 µM (inactive) |  | 17.8 µM (inactive) | 2.41 µM (inactive) |  | > 100 µM (inactive) | 30.8 µM (inactive) |  |
| O=C(O)c1ccccc1/C=N\N(CCO)C1=NCCN1 |  | > 100 µM (inactive) | > 100 µM (inactive) | > 100 µM (inactive) | > 100 µM (inactive) | > 100 µM (inactive) | > 100 µM (inactive) | > 100 µM (inactive) | > 100 µM (inactive) | > 100 µM (inactive) | > 100 µM (inactive) | > 100 µM (inactive) | > 100 µM (inactive) | > 100 µM (inactive) | > 100 µM (inactive) | > 100 µM (inactive) |  | > 100 µM (inactive) |  |
| O=[N+]([O-])C(C=C(n1nnc2ccccc21)n1nnc2ccccc21)=C(n1nnc2ccccc21)n1nnc2ccccc21 | > 100 µM (inactive) | > 100 µM (inactive) | > 100 µM (inactive) | 25 µM (inactive) | > 100 µM (inactive) | > 100 µM (inactive) | 84.1 µM (inactive) | > 100 µM (inactive) | > 100 µM (inactive) | > 100 µM (inactive) | > 100 µM (inactive) | > 100 µM (inactive) |  | 23 µM (inactive) | > 100 µM (inactive) | > 100 µM (inactive) |  | > 100 µM (inactive) |  |
| NC1CC(=O)c2sc(I)cc21 (stereo not given) | > 100 µM (inactive) | > 100 µM (inactive) | > 100 µM (inactive) | 37.4 µM (inactive) | > 100 µM (inactive) | > 100 µM (inactive) |  | > 100 µM (inactive) | > 100 µM (inactive) | > 100 µM (inactive) | > 100 µM (inactive) | > 100 µM (inactive) | > 100 µM (inactive) | 8.39 µM (inactive) | > 100 µM (inactive) | > 100 µM (inactive) | > 100 µM (inactive) | > 100 µM (inactive) |  |
| COC1CC(OC2C(C)OC(OC3C(C)OC(OC4C(O)CC(O[C@H]5CC[C@@]6(C)C(=CC[C@]7(O)[C@@H]6C[C@@H](OC(C)=O)[C@@]6(C)[C@]7(O)CC[C@@]6(O)C(C)=O)C5)OC4C)CC3OC)CC2OC)OC(C)C1O (stereo not given in full) |  | > 12.5 µM (inactive) | > 12.5 µM (inactive) | > 12.5 µM (inactive) | > 12.5 µM (inactive) | > 12.5 µM (inactive) | > 12.5 µM (inactive) | > 12.5 µM (inactive) | > 12.5 µM (inactive) | > 12.5 µM (inactive) | > 12.5 µM (inactive) |  |  | > 12.5 µM (inactive) | > 12.5 µM (inactive) | > 12.5 µM (inactive) | > 12.5 µM (inactive) | > 12.5 µM (inactive) | > 12.5 µM (inactive) |
| C[C@H](NC(=O)CNC(=O)CCCCCC(=O)NCC(=O)N[C@@H](C)C(=O)OCc1ccccc1)C(=O)OCc1ccccc1 |  | > 100 µM (inactive) | > 100 µM (inactive) | > 100 µM (inactive) | > 100 µM (inactive) | > 100 µM (inactive) | > 100 µM (inactive) | > 100 µM (inactive) | > 100 µM (inactive) | > 100 µM (inactive) | > 100 µM (inactive) | > 100 µM (inactive) | > 100 µM (inactive) | > 100 µM (inactive) | > 100 µM (inactive) | > 100 µM (inactive) | > 100 µM (inactive) | > 100 µM (inactive) |  |
| C/C1=C\CC[C@@]2(C)O[C@@H]2C[C@@H]2[C@H](C/C(C)=C/CC1)OC(=O)C21CCN=N1 (stereo not given in full) | > 100 µM (inactive) | 51.2 µM (inactive) | > 75 µM (inactive) | 15 µM (inactive) | > 75 µM (inactive) | > 75 µM (inactive) | > 75 µM (inactive) | > 75 µM (inactive) | > 75 µM (inactive) | > 75 µM (inactive) | > 75 µM (inactive) | > 75 µM (inactive) | > 75 µM (inactive) |  | > 100 µM (inactive) | > 75 µM (inactive) | > 75 µM (inactive) | > 75 µM (inactive) | 72.4 µM (inactive) |
| Clc1cccc(-c2sc(-c3cccs3)cc2Cc2cccs2)c1 |  | > 10 µM (inactive) | > 10 µM (inactive) | > 10 µM (inactive) | > 10 µM (inactive) | > 10 µM (inactive) | > 10 µM (inactive) | > 10 µM (inactive) | > 10 µM (inactive) | 3.71 µM (inactive) |  | > 10 µM (inactive) | > 10 µM (inactive) | > 10 µM (inactive) | 0.74 µM (active) | > 10 µM (inactive) | > 10 µM (inactive) | > 10 µM (inactive) | > 10 µM (inactive) |
| O=S1(=O)OCc2ccccc21 | 37.5 µM (inactive) | > 100 µM (inactive) | > 100 µM (inactive) | > 100 µM (inactive) | > 100 µM (inactive) | > 100 µM (inactive) | > 100 µM (inactive) | > 100 µM (inactive) | > 100 µM (inactive) | > 100 µM (inactive) | 32.5 µM (inactive) | > 100 µM (inactive) | > 100 µM (inactive) |  | > 100 µM (inactive) | > 100 µM (inactive) | > 100 µM (inactive) | 80.2 µM (inactive) | 79.8 µM (inactive) |
